From patent publication US20050222036A1, “Peptide compositions with effects on blood glucose” (priority 2000, published 2005)

Experiments:
[1] = system: rats; test: Morris Water Maze (MWM), spatial learning in rats; assay type: in vivo, rat
Protocol: Spatial learning was assessed using the Morris Water Maze (Morris et al. Nature, 1982, 297: 681). Information was relayed via a tracker (HSV Image, Hampton, UK) to a personal computer, which was quantified by a specialized computer program (Water 2020, Hampton, UK). The acquisition study was performed as described previously. Animals were anaesthetized with isofluorane then administered peptide intra-nasally 20 min before testing. Rats were given four training trials. 48 h after training, a retention test was performed: rats were allowed to find the hidden platform for one trial. Mice initially had six trials without treatment to habituate them to the procedure. The following day, they were administered vehicle or [Ser(2)]exendin(1-9) (SEQ ID NO:1) and trained for an additional four trials with the platform in a new location. For a retention test, mice were given one trial to locate the platform the next day. Latency to find the platform was considered a measure of retention of spatial learning.
The elevated plus maze consists of two open and two closed arms; time spent and the number of entries into open arms are indicators of neophobic anxiety in rats. The number of entries and total time spent in the open arms were tabulated over 5 min by an observer blind to the experimental condition. Animals falling off the apparatus were eliminated from the study. For the intracerebroventricular (i.c.v.) studies, rats were implanted with a cannula (22 gauge, Plastics One, Roanoke, Va.) into the left ventricle (AP 0.8 mm, ML 1.6 mm, DV 3.5 mm from dura) then allowed at least 3-4 days to recover. The peptides were infused in a total volume of 2 μl (1 μl min −1) 25 min before training with two trials per day for 5 days. The visual platform test was conducted after the last training trial on day 5 in a different location of the pool.
In another series of experiments, rats (N=15-16) were pretreated with either Gilatide (10 μg/kg, 30 μg/kg, or 60 μg/kg) or vehicle and then trained for four trials in a Morris Water Maze. Two days following training, the rats were retested. Latency to find a submerged platform in the Morris Water Maze paradigm was measured.
Clinically approved treatments for cognitive impairment act primarily on the cholinergic system. The effects of intranasal GLP-1 and [Ser(2)]exendin(1-9) were compared with that of the cholinergic agonist arecoline on spatial learning in a modified version of the MWM (Setlow, B. et al. Learn. Mem, 2000. 7: 187). Rats were first administered vehicle, [Ser(2)]exendin(1-9), GLP-1 or arecoline, and trained for four trials to locate a submerged platform. They were then tested in a single retention trial 48 hours after initial training. There were no differences between treatments in acquisition (FIG. 10A).

[2] = system: rats; test: Elevated plus maze test (anxiogenic effects); assay type: in vivo, rat; parameters: TIME Open Arm / TIME Closed Arm: unit not given here; conditions: 10 ng ICV

## HAEGTFTSDVSSVLEGQAAKEFIAWLVKGR [GLP-1, glucagon-like peptide 1]
[1]; 100 ng i.c.v.
  latency (not shown): decrease latency
[1]; i.c.v., vs control rats
  distance traveled to locate the platform: significantly reduced distance traveled
[1]; i.c.v., vs vehicle
  swimming speed: decrease swimming speed
[1]; modified MWM, intranasal (arecoline s.c.), four trials
  acquisition of spatial learning: did not affect acquisition of spatial learning
[2]
  ENTRIES Closed Arm: 2.7 ± 0.5
  ENTRIES Open Arm: 0.7 ± 0.4
  TIME Closed Arm: 198.3 ± 29
  TIME Open Arm: 16.7 ± 11
